Measurements from US7319021B2, “Cell lysis composition, methods of use, apparatus and kit” (Promega Corporation, priority 2002, dated 2008).
Several values for one entry are separate records, joined by “and”; a condition that tells them apart may be missing. Equal values may be shown once.

How the values were obtained:
E. coli cells [1] = experiment: Optical density and visual turbidity of E. coli culture after treatment (Example 2); format: cell-based
Method: E. coli bacteria expressing His-tagged Renilla Luciferase were grown in Luria Broth [L Broth]+10 ng/ml tetracycline [Tet] [50 ml of media in a 250 ml flask] at 37° C. overnight in a shaking incubator rotating at 200 RPM. The E. coli strain was prepared by transforming E. coli with a vector expressing histidine-tagged Renilla luciferase. The vector was constructed by conventional methods. See Maniatis et al., “Molecular Cloning: A Laboratory Manual,” 2nd Edition, Cold Spring Harbor Laboratory, Cold Spring Harbor, N.Y. (1982). Following overnight culture the bacterial cells were diluted 1:100 into fresh L broth+Tet and grown to a density of 0.6 at 600 nm [OD 600 0.6] at 37C on the shaking incubator. Renilla expression was induced by addition of isopropyl-beta-D-thiogalactopyranoside (IPTG) from a 1M filter sterilized solution to a final concentration of 1 mM. The culture was grown for 4 additional hours at 37C on the shaking incubator before use. […]
900 ul of 20 mM Tris-HCl pH 7.3 and 100 ul of the corresponding solutions were added to each of 12 disposable plastic cuvettes. After the instrument background was set to zero with a 20 mM Tris-HCl pH 7.3 solution at an optical density of 600 nm (OD600), and the optical density of the solutions was measured.

E. coli cells [2] = experiment: Release of Renilla Luciferase from E. coli (Example 2); format: cell-based
Method: E. coli bacteria expressing His-tagged Renilla Luciferase were grown in Luria Broth [L Broth]+10 ng/ml tetracycline [Tet] [50 ml of media in a 250 ml flask] at 37° C. overnight in a shaking incubator rotating at 200 RPM. The E. coli strain was prepared by transforming E. coli with a vector expressing histidine-tagged Renilla luciferase. The vector was constructed by conventional methods. See Maniatis et al., “Molecular Cloning: A Laboratory Manual,” 2nd Edition, Cold Spring Harbor Laboratory, Cold Spring Harbor, N.Y. (1982). Following overnight culture the bacterial cells were diluted 1:100 into fresh L broth+Tet and grown to a density of 0.6 at 600 nm [OD 600 0.6] at 37C on the shaking incubator. Renilla expression was induced by addition of isopropyl-beta-D-thiogalactopyranoside (IPTG) from a 1M filter sterilized solution to a final concentration of 1 mM. The culture was grown for 4 additional hours at 37C on the shaking incubator before use.
One ml of the Renilla luciferase expressing E. coli culture was added to each of 12 tubes, labeled 1 through 12: tubes 1-3, no further addition; tubes 4-6, 10 ul of 10 mg/ml lysozyme; tubes […], 100 ul of CLR formulation A, and; tubes 10-12, 100 ul of CLR formulation A and 10 ul of 10 mg/ml lysozyme. […]

lysozyme: 10 mg/ml solution of lysozyme [Sigma L 6876] in 20 mM Tris-HCl buffer, pH 7.3; 10 ul per ml culture
OD600 (E. coli cells [1]; 100 ul of treated culture in 900 ul 20 mM Tris-HCl pH 7.3, culture expressing His-tagged Renilla Luciferase): 0.3264 and 0.3261 and 0.3033 | level of turbidity, visual inspection (E. coli cells [1]; tubes inverted 10 times): very turbid | Relative Light Units Resuspended Pellet Sample (E. coli cells [2]; 2 ul of pellet resuspended in 800 ul): 58.41 Relative Light Units and 60.99 Relative Light Units and 72.03 Relative Light Units | Relative light Units, Supernatant Sample (E. coli cells [2]; 2 ul of supernatant): 0.053 Relative light Units and 0.074 Relative light Units and 0.048 Relative light Units
